# Test system: Escherichia coli ATCC 25922
# Assay: 50% growth inhibitory concentration (IC50) determination, Iso-Sensitest broth dilution
# Type: cell-based
# Settings: Escherichia coli, ATCC25922, 16 h, strain Escherichia coli ATCC 25922; 10-point broth dilution, optical density at 600 nm over 16 h; read-out: Escherichia coli growth inhibition IC50
# In short: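 Growth was tracked as optical density at 600 nm every 20 minutes for 16 h at 35±2° C. Compounds from DMSO stocks were serially diluted twofold over 10 points (e.g. 50–0.097 μM final) in Iso-Sensitest broth. Inhibition computed in log-phase growth to give IC50.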
row,SMILES,IC50 [nM]
1,"N#Cc1cc(OC[C@H](N)CO)cc2c1CC(CNCCC1CN(c3ccc4c(n3)NC(=O)CO4)C(=O)O1)C2 (stereo partly drawn) [Example 236, 6-[(2R)-2-Amino-3-hydroxypropoxy]-2-[[2-[2-oxo-3-(3-oxo-4H-pyrido[3,2-b][1,4]oxazin-6-yl)-1,3-oxazolidin-5-yl]ethylamino]methyl]-2,3-dihydro-1H-indene-4-carbonitrile]",< 97.7
2,"NC(CNCC1CN(c2ccc3c(n2)NC(=O)CO3)C(=O)O1)C1Cc2cccc(Cl)c2C1 (stereo not shown) [Example 158, 6-[5-[[[2-amino-2-(4-chloro-2,3-dihydro-1H-inden-2-yl)ethyl]amino]methyl]-2-oxo-1,3-oxazolidin-3-yl]-4H-pyrido[3,2-b][1,4]oxazin-3-one; formic acid]",164
3,"O=C1COc2ccc(N3CC(CCCNC4Cc5cccc(Cl)c5C4)OC3=O)nc2N1 (stereo not shown) [Example 4, 6-[5-[3-[(4-chloro-2,3-dihydro-1H-inden-2-yl)amino]propyl]-2-oxo-1,3-oxazolidin-3-yl]-4H-pyrido[3,2-b][1,4]oxazin-3-one]",< 97.7
4,"N#Cc1cccc2c1CC(CNCCC1CN(c3ccc4c(n3)NC(=O)CO4)C(=O)O1)C2N (racemic) [Example 228, rac-1,2-trans-1-Amino-2-[[2-[2-oxo-3-(3-oxo-4H-pyrido[3,2-b][1,4]oxazin-6-yl)-1,3-oxazolidin-5-yl]ethylamino]methyl]-2,3-dihydro-1H-indene-4-carbonitrile]",174
5,O=C1COc2ncc(N3CC(CCNCC4Cc5cc(OCCN6C(=O)CCC6=O)cc(F)c5C4)OC3=O)nc2N1 (stereo not shown) [Example 345],659
6,"C[C@@H](N)COc1cc(F)c2c(c1)CC(CN1CCC3(CC1)CN(c1cnc4c(n1)NC(=O)CO4)C(=O)O3)C2 (stereo partly drawn) [Example 357, 6-[8-[[6-[(2R)-2-aminopropoxy]-4-fluoro-2,3-dihydro-1H-inden-2-yl]methyl]-2-oxo-1-oxa-3,8-diazaspiro[4.5]decan-3-yl]-4H-pyrazino[2,3-b][1,4]oxazin-3-one; formic acid]",< 97.7
7,"N#Cc1cccc2c1CC(CN1CCC3(CC1)CN(c1ccc4c(n1)NC(=O)CO4)C(=O)O3)C2N (racemic) [Example 131, rac-1,2-trans-1-amino-2-[[2-oxo-3-(3-oxo-4H-pyrido[3,2-b][1,4]oxazin-6-yl)-1-oxa-3,8-diazaspiro[4.5]decan-8-yl]methyl]-2,3-dihydro-1H-indene-4-carbonitrile; formic acid]",240
8,"Cc1ncc(F)c2c1CC(CN1CCC3(CC1)CN(c1ccc4c(n1)NC(=O)CO4)C(=O)O3)C2 (stereo not shown) [Example 72, 6-[8-[(4-fluoro-1-methyl-6,7-dihydro-5H-cyclopenta[c]pyridin-6-yl)methyl]-2-oxo-1-oxa-3,8-diazaspiro[4.5]decan-3-yl]-4H-pyrido[3,2-b][1,4]oxazin-3-one]",69.7
9,"CS(=O)(=O)NCCOc1ccc2c(c1C#N)CC(CNCCC1CN(c3ccc4c(n3)NC(=O)CO4)C(=O)O1)C2 (stereo not shown) [Example 59, N-[2-[[4-cyano-2-[[2-[2-oxo-3-(3-oxo-4H-pyrido[3,2-b][1,4]oxazin-6-yl)-1,3-oxazolidin-5-yl]ethylamino]methyl]-2,3-dihydro-1H-inden-5-yl]oxy]ethyl]methanesulfonamide]",253
10,"Cc1nc(OCC2CC(=O)N(C)C2)c(C)c2c1CC(CNCCC1CN(c3ccc4c(n3)NC(=O)CO4)C(=O)O1)C2 (stereo not shown) [Example 103, 6-[5-[2-[[1,4-dimethyl-3-[(1-methyl-5-oxopyrrolidin-3-yl)methoxy]-6,7-dihydro-5H-cyclopenta[c]pyridin-6-yl]methylamino]ethyl]-2-oxo-1,3-oxazolidin-3-yl]-4H-pyrido[3,2-b][1,4]oxazin-3-one]",1690
11,"COc1nc(C)c2c(c1F)CC(CNCCC1CN(c3cnc4c(n3)NC(=O)CO4)C(=O)O1)C2 (stereo not shown) [Example 397, 6-[5-[2-[(4-fluoro-3-methoxy-1-methyl-6,7-dihydro-5H-cyclopenta[c]pyridin-6-yl)methylamino]ethyl]-2-oxo-1,3-oxazolidin-3-yl]-4H-pyrazino[2,3-b][1,4]oxazin-3-one]",< 97.7
12,"COc1cnc(Cl)c2c1CC(CNCCC1CN(c3ccc4c(n3)NC(=O)CO4)C(=O)O1)C2 (stereo not shown) [Example 57, 6-[5-[2-[(1-chloro-4-methoxy-6,7-dihydro-5H-cyclopenta[c]pyridin-6-yl)methylamino]ethyl]-2-oxo-1,3-oxazolidin-3-yl]-4H-pyrido[3,2-b][1,4]oxazin-3-one]",328
13,"N#Cc1cccc2c1CC(NCCNC1CC(=O)N(c3ccc4c(n3)NC(=O)CO4)C1)C2 (stereo not shown) [Example 121, 2-[2-[[5-oxo-1-(3-oxo-4H-pyrido[3,2-b][1,4]oxazin-6-yl)pyrrolidin-3-yl]amino]ethylamino]-2,3-dihydro-1H-indene-4-carbonitrile]",167
14,"CNC(=O)COc1cc(Cl)c2c(c1)C(N)C(CNCCC1CN(c3ccc4c(n3)NC(=O)CO4)C(=O)O1)C2 (racemic) [Example 400, N-methyl-2-[[rac-2,3-trans-3-amino-7-chloro-2-[[2-[2-oxo-3-(3-oxo-4H-pyrido[3,2-b][1,4]oxazin-6-yl)-1,3-oxazolidin-5-yl]ethylamino]methyl]-2,3-dihydro-1H-inden-5-yl]oxy]acetamide; formic acid]",365
15,"N#Cc1cc(OCC2(N)CC2)cc2c1CC(CCNCC1CN(c3ccc4c(n3)NC(=O)CO4)C(=O)O1)C2 (stereo not shown) [Example 196, 6-((1-aminocyclopropyl)methoxy)-2-(2-(((2-oxo-3-(3-oxo-3,4-dihydro-2H-pyrido[3,2-b][1,4]oxazin-6-yl)oxazolidin-5-yl)methyl)amino)ethyl)-2,3-dihydro-1H-indene-4-carbonitrile]",< 97.7
16,"O=C1COc2ncc(N3CC(CCNCC4Cc5cc(OCCn6nccn6)cc(F)c5C4)OC3=O)nc2N1 (stereo not shown) [Example 343, 6-[5-[2-[[4-fluoro-6-(2-(triazol-2-yl)ethoxy]-2,3-dihydro-1H-inden-2-yl]methylamino]ethyl]-2-oxo-1,3-oxazolidin-3-yl]-4H-pyrazino[2,3-b][1,4]oxazin-3-one; formic acid]",617
17,"CC(CN)Oc1cc(F)c2c(c1)CC(CNCCC1CN(c3ccc4c(n3)NC(=O)CO4)C(=O)O1)C2 (stereo not shown) [Example 155, 6-[5-[2-[[6-(1-aminopropan-2-yloxy)-4-fluoro-2,3-dihydro-1H-inden-2-yl]methylamino]ethyl]-2-oxo-1,3-oxazolidin-3-yl]-4H-pyrido[3,2-b][1,4]oxazin-3-one; formic acid]",364
18,"NC1c2cccc(Cl)c2CC1CNCCC1CN(c2ccc3c(n2)NC(=O)CO3)C(=O)O1 (single isomer, unassigned; isomer a) [Example 207, 6-[2-Oxo-5-[2-[[1,2-trans-1-amino-4-chloro-2,3-dihydro-1H-inden-2-yl]methylamino]ethyl]-1,3-oxazolidin-3-yl]-4H-pyrido[3,2-b][1,4]oxazin-3-one, Isomer A]",< 97.7
19,"Cc1ncc(F)c2c1CC(CCNCC1CN(c3cnc4c(n3)NC(=O)CO4)C(=O)O1)C2 (stereo not shown) [Example 265, 6-[5-[[2-(4-Fluoro-1-methyl-6,7-dihydro-5H-cyclopenta[c]pyridin-6-yl)ethylamino]methyl]-2-oxo-1,3-oxazolidin-3-yl]-4H-pyrazino[2,3-b][1,4]oxazin-3-one; formic acid]",< 97.7

# Source: patent US20230167127A1, “COMPOUNDS AND THEIR USE IN THE TREATMENT OF BACTERIAL INFECTION” (Hoffmann-La Roche Inc., priority 2020, published 2023)
